From patent US9199959B2, “HIV replication inhibitor” (Shionogi & Co., Ltd., priority 2011, dated 2015)

Target: T1, human ether-a-go-go related gene (hERG) channel (Homo sapiens, UniProt Q12809)
T1 construct: expressed in transfected cells; host or cells: HEK293
Assay: hERG test, whole cell patch clamp
Format: cell-based
Conditions: HEK293 cells expressing hERG channel
Excerpt: For the purpose of assessing risk of an electrocardiogram QT interval prolongation, effects on delayed rectifier K+ current (IKr), which plays an important role in the ventricular repolarization process of the compound of the present invention, was studied using HEK293 cells expressing human ether-a-go-go related gene (hERG) channel.
After a cell was retained at a membrane potential of −80 mV by whole cell patch clamp method using an automated patch clamp system (PatchXpress 7000A, Axon Instruments Inc.), IKr induced by depolarization pulse stimulation at +40 mV for 2 seconds and, further, repolarization pulse stimulation at −50 mV for 2 seconds was recorded. […] From the recording IKr, an absolute value of the tail peak current was measured based on the current value at the resting membrane potential using an analysis software (DataXpress ver. 1, Molecular Devices Corporation). Further, the inhibition relative to the tail peak current before application of the test substance was calculated, and compared with the vehicle-applied group (0.1% dimethyl sulfoxide solution) to assess influence of the test substance on IKr.

T1 sequence (Q12809 whole entry): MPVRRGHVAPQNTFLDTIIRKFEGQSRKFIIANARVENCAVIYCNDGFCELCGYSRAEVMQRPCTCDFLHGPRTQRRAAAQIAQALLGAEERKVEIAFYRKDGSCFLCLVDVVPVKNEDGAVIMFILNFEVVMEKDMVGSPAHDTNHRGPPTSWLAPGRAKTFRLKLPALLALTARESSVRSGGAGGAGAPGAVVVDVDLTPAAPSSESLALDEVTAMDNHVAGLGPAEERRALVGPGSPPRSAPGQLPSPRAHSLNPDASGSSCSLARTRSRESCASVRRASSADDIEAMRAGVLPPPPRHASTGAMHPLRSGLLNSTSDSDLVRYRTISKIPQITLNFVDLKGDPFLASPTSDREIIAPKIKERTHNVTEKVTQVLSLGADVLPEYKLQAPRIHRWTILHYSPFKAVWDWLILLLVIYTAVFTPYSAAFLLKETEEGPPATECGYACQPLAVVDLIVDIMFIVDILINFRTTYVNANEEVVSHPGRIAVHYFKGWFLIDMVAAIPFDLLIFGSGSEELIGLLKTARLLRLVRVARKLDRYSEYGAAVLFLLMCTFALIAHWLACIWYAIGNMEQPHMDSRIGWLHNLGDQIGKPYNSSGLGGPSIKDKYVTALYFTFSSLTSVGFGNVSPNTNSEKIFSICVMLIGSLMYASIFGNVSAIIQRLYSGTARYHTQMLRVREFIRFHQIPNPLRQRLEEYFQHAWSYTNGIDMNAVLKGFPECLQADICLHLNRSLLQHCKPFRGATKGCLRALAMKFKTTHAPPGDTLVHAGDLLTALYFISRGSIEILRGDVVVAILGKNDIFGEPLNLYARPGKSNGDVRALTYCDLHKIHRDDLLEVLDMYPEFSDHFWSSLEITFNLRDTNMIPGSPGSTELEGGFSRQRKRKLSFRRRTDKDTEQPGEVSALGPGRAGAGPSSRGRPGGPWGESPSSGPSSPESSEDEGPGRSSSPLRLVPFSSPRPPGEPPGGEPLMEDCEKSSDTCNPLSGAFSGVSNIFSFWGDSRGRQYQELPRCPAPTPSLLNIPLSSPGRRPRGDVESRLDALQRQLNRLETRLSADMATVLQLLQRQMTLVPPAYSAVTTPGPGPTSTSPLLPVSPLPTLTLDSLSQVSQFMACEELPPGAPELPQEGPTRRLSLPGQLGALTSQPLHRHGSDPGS

Structure (SMILES): CC(=O)Nc1c(C)c(C(OC(C)(C)C)C(=O)O)c(-c2ccc(C)c(C)c2)c(C)c1-c1ccc(C)c(C)c1 (stereo not shown) [Compound I-6]
- inhibition ratio of IKr tail peak current: 3.5%
